According to patent publication EP4741392A1, “1H-PYRAZOLO[4,3-C]PYRIDINE COMPOUND, AND COMPOSITION THEREOF AND USE THEREOF” (Shenzhen TargetRx Co., Ltd., priority 2023, dated 2025):

How the values were obtained:
Type in all cases: cell-based
TMD8 cells = experiment: Viability assay of TMD8 cells (CTG); conditions: Homo sapiens, cell viability, 120 hours
Protocol: (§1) The in vitro antiproliferative activity of the compounds of the present disclosure against TMD8 cells and OCI-LY10 cells was assayed using CTG (Cell Titer-Glo) luminescent cell viability assay. The specific assay methods were as follows. • a) TMD8 cells were cultured at 37 °C and 5% CO2 in complete medium [RPMI 1640 (supplier Gibco, product number 22400-089) + 10% FBS (supplier Gibco, product number 10091-148) + 1% P/S (supplier Hyclone, product number SV30010)]; OCI-LY10 cells were cultured at 37 °C and 5% CO2 in medium [IMDM (supplier Gibco, product number 31980-030) + 20% FBS (supplier Gibco, product number 10091-148) + 1% P/S (supplier Hyclone, product number SV30010) + 0.05 mM 2-Mercaptoethanol (supplier Sigma, product number M6250)]. • b) Cells in the logarithmic growth phase were harvested, and the total cell count and viable cell count were determined using a Vi-cell cell counter (supplier: BECKMAN COULTER, product number 2785198). • c) Cell density was adjusted using complete culture medium. Then, the cells were inoculated at 1500 cells per well in a 384-well cell culture plate (supplier Greiner, product number 781090). • d) The cells in the 384-well plate were cultured at 37 °C and 5% CO2 overnight. • e) A 10-fold drug solution was prepared, and then the serially diluted compound was transferred to the corresponding assay wells of the 384-well cell plate so that the final assay concentration was 1000 nM, with 9 concentrations, 3-fold dilutions, and triplicates for each drug concentration. • f) The cells in the 384-well plate with the drug added were cultured at 37 °C and 5% CO2 for another 120 hours. • g) The cells were removed from the incubator, and allowed to equilibrate at room temperature for 30 minutes. The cell state and compound solubility were observed under a microscope. • h) An equal volume of CellTiterGlo solution (supplier Promega, product number G7573) was added to each well, and the plate was incubated at room temperature for 30 minutes. • i) Then, the luminescent signal value was detected on an EnVision instrument (supplier PerkinElmer, product number 2441715).
(§2) The data were analyzed using XL-fit software (supplier: ID Business Solutions Ltd., software version: XL fit 5.5.0.5). Nonlinear regression was performed using X=Log(X), and the X values were transformed using a four-parameter Logistic model 205, from which the IC50 values were calculated. Inhibition rate % = (Max−samplevalue)/Max*100.(Max:DMSOnegativecontrol) [formula]

[1] = system: Ba/F3-ETV6-BTK-T474I cells; experiment: Viability assay of Ba/F3-ETV6-BTK-T474I cells (CTG); conditions: Mus musculus, BaF3, cell viability, 72 hours
Protocol: The in vitro antiproliferative activity of the compounds of the present disclosure against Ba/F3-ETV6-BTK-T474I cells was assayed using CTG luminescent cell viability assay. The specific assay methods were as follows: • a) Ba/F3-ETV6-BTK-T474I cells were cultured at 37 °C and 5% CO2 in complete medium [RPMI 1640 (supplier Gibco, product number 22400-089) + 10% FBS (supplier Gibco, product number 10091-148)]. • b) Cells in the logarithmic growth phase were harvested, and cell counting was performed using a […]. Trypan blue exclusion test was used to determine the cell viability, ensuring that the cell viability was above 90%. • c) Cell density was adjusted using complete culture medium. Then, the cells were inoculated at 90 µL, a total of 3000 cells per well in a 96-well cell culture plate (supplier: Shanghai Jing An Biotechnology Co., Ltd., product number J09601). • d) The cells in the 96-well plate were cultured at 37 °C and 5% CO2. • e) A 10-fold drug solution was prepared, and then 10 µL of each serially diluted compound was transferred to the corresponding assay wells of the 96-well cell plate so that the final assay concentration was 1000 nM, with 9 concentrations, 3.16-fold dilutions, and triplicates for each drug concentration. • f) The cells in the 96-well plate with the drug added were cultured at 37 °C and 5% CO2 for another 72 hours. Then, CTG analysis was performed. • g) The CTG reagent was melted, and the cell plate was equilibrated at room temperature for 30 minutes. • h) An equal volume of CTG solution was added to each well. • i) The plate was shaken on an orbital shaker for 5 minutes to lyse the cells. • j) The cell plate was placed at room temperature for 20 minutes to stabilize the luminescent signal. • k) The luminescent signal values were read and the data were collected.
The data were analyzed using GraphPad Prism 7.0 software. Nonlinear S-curve regression was used to fit the data to give a dose-response curve, from which the IC50 values were calculated. [formula]

OCI-LY10 cells = experiment: Viability assay of OCI-LY10 cells (CTG); conditions: Homo sapiens, OCI-Ly10, 120 h, cell viability, read-out: OCl-Ly10
Protocol: as §1, §2

Row | IC50 [1] [nM] | IC50 (OCI-LY10 cells) [nM] | Structure (SMILES) | IC50 (TMD8 cells) [nM]
1 | ≤ 5 | ≤ 5 | COc1ccc(F)cc1C(=O)NCc1ccc(-c2ncc(-c3ccc(N4CCN(C)C[C@H]4C)cn3)c3[nH]nc(N)c23)cc1 [Example 75, (R)-N-(-4-(3-amino-7-(5-(2,4-dimethylpiperazin-1-yl)pyridin-2-yl) 1H-pyrazolo[4,3-c]pyridin-4-yl)benzyl)-5-fluoro-2-methoxybenzamide] | ≤ 5
2 | ≤ 5 | ≤ 5 | COc1ccc(F)cc1C(=O)NCc1ccc(-c2ncc(-c3ccc(N4CCOCC4)cn3)c3[nH]nc(N)c23)cc1 [Example 76, N-(4-(3-amino-7-(5-morpholinopyridin-2-yl)-1H-pyrazolo[4,3-c]pyridin-4-yl)benzyl)-5-fluoro-2-methoxybenzamide] | ≤ 5
3 | > 50 | 10 to 50 | COc1ccc(F)cc1C(=O)NCc1ccc(-c2nc(C3CCOCC3)cc3[nH]nc(N)c23)cc1 [Example 115, N-(4-(3-amino-6-(tetrahydro-2H-pyran-4-yl)-1H-pyrazolo[4,3-c]pyridin-4-yl)benzyl)-5-fluoro-2-methoxybenzamide] | 10 to 50
